Molecules are shown by their SMILES. The source made the active and inactive calls. Some results are limits rather than exact numbers.

Experiment [1] is described as follows: growth induction of Burl-1 ts yeast mutant, dose response, counter-screen for SUMOylation pathway inhibitor project, whole organism, S. cerevisiae, luminescence (AID 463199). It is filed as functional.
The target of the next experiment is Trypsin (Sus scrofa, UniProt P00761). The experiment in a line: porcine trypsin inhibitors, dose response, selectivity assay for Rce1 protease inhibitor project, biochemical, quenched peptide fluorescence, cherry-pick (AID 488789).
A further experiment addresses CAAX prenyl protease 1 (Saccharomyces cerevisiae S288c, UniProt P47154). The experiment can be described thus: Ste24 protease inhibitors, dose response, biochemical, S. cerevisiae, plate reader, cherry-pick (AID 488815).
The target of the next experiment is CAAX prenyl protease 2 (Homo sapiens, UniProt Q9Y256). The experiment can be described thus: human Rce1 protease inhibitors, dose response, biochemical, yeast membranes, quenched-peptide fluorescence, cherry-pick (AID 588849).
The target of experiment [2] is T1, Mannose-6-phosphate isomerase (Homo sapiens, UniProt P34949).
T1 sequence (P34949 whole entry): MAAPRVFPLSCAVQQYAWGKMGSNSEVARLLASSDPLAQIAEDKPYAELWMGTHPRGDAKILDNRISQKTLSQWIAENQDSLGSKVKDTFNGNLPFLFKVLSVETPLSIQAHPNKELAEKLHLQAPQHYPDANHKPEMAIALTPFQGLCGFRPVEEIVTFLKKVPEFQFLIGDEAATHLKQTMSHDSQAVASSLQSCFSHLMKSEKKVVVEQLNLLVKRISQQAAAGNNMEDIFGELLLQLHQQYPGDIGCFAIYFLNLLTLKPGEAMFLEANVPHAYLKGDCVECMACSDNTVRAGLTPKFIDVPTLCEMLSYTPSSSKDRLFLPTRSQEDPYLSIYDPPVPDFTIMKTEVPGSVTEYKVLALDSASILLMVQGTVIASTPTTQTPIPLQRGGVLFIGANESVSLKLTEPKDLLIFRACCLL
The experiment can be described thus: PMI enzyme inhibitors, confirmation, biochemical, fluorescence intensity (AID 1535).

For another experiment, the target named is Phosphomannomutase 2 (Homo sapiens, UniProt O15305). The experiment can be described thus: Counter screen SAR assay for PMM2 inhibitors via a fluorescence intensity assay. [Related pubchem assays (depositor defined):AID1545, AID1574]. (A counterscreen serves to expose hits that act by an unwanted route or on another target.)
The target in experiment [3] is Phosphoethanolamine/phosphocholine phosphatase (Homo sapiens, UniProt Q8TCT1). The experiment in a line: SAR assay for compounds that inhibit PHOSPHO1. [Related pubchem assays (depositor defined):AID1545, AID1565, AID1574].
The test system of experiment [4] is Escherichia coli. The experiment in a line: microbe, parasite or virus in culture.
Experiment [5] has as its system Escherichia coli. The experiment can be described thus: microbe, parasite or virus in culture. This is another data set of the same source.
A short description of experiment [6]: inhibitors of Trypanosoma cruzi host-cell infection, confirmation, beta-gal luminescence, NIH3T3 host cells (AID 2630). It is filed as functional, cell-based. The conditions noted are these: Mus musculus.
The test system of a further experiment is INS1. The experiment can be described thus: protection of INS-1E cells from cytokine death, dose response, ATP luminescence, dry powder (AID 488844). The conditions noted are these: Rattus norvegicus. It is filed as functional, cell-based.

Chain of Phosphoethanolamine/phosphocholine phosphatase (Q8TCT1 whole entry): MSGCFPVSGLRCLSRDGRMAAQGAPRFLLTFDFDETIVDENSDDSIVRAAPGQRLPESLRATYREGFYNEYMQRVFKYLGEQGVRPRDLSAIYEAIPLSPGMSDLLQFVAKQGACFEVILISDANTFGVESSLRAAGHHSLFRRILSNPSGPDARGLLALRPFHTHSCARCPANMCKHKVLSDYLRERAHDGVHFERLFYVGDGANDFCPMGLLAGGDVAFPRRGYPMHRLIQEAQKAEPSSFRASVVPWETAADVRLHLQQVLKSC
Chain of Trypsin (P00761 whole entry): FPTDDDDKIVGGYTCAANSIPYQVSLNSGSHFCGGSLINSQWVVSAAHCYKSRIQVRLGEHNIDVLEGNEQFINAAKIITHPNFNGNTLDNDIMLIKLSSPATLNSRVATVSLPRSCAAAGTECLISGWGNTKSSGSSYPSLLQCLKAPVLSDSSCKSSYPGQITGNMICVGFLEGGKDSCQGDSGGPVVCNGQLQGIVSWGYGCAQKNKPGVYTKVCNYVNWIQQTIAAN
Chain of Phosphomannomutase 2 (O15305 whole entry): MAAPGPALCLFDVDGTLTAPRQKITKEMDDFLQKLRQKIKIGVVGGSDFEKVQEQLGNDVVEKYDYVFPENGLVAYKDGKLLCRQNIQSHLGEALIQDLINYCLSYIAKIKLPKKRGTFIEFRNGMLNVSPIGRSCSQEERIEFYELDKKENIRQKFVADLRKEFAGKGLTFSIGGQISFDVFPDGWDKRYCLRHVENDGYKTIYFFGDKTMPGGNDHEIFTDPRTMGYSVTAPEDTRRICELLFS
Chain of CAAX prenyl protease 1 (P47154 whole entry): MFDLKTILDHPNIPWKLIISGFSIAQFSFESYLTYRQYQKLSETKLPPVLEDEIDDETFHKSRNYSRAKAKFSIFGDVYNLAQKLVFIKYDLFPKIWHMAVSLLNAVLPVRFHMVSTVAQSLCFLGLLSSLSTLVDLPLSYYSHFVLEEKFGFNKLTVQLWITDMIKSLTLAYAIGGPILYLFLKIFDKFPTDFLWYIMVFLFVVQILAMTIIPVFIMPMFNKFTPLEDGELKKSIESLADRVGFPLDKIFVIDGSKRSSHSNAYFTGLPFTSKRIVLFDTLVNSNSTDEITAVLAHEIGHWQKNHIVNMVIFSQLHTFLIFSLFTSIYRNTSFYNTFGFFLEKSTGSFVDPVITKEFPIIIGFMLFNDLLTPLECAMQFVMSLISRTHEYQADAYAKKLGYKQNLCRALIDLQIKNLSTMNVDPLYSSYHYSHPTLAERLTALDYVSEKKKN
Chain of CAAX prenyl protease 2 (Q9Y256 whole entry): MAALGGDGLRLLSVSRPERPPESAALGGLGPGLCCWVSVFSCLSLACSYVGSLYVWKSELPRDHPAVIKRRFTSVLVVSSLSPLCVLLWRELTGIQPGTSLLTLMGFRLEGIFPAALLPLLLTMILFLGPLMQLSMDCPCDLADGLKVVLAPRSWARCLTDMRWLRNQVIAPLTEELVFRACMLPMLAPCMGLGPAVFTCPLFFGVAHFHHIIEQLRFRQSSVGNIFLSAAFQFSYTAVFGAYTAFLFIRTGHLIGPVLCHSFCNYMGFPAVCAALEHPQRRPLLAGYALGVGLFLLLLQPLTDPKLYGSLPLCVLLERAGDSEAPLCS

Take `C=CCN(C(=O)CNC(=O)c1ccco1)C(C(=O)NC1CCCCC1)c1ccccc1` (stereo unspecified): the AC50 in experiment [1] is 101 µM (active).

For `CC(Oc1ccc2c3c(c(=O)oc2c1)CCCC3)C(=O)NC1CC(C)(C)NC(C)(C)C1` (stereo unspecified), the half-maximal activity concentration (AC50) is 9.81 µM (active) at Trypsin, 2.88 µM (active) on CAAX prenyl protease 1 and 16.2 µM (active) at CAAX prenyl protease 2.

As for `O=C1c2ccccc2C(=O)c2c1ccc1c(=O)n(-c3ccccc3)sc21`, the values for the IC50 (in experiment [2]; at Phosphomannomutase 2; in experiment [3]) were > 50 µM (inactive), > 100 µM (inactive) and 1.96 µM (inactive), respectively.

`COc1ccc(S(=O)(=O)N2CCN(CC(=O)Nc3c(C)n[nH]c3C)CC2)cc1OC`: in the experiment on Escherichia coli [4], the concentration at half-maximal activity (AC50) was 62.1 µM (active).

Take `Cc1cc(Cl)c(S(=O)(=O)NC(C(=O)O)C(C)C)cc1OCC(=O)NC1CCCCC1` (stereo unspecified): the AC50 in the experiment on Escherichia coli [5] was 25.9 µM (active).

As to `COc1ccc(C(=O)C2CCCN(CC3CCCCC3)C2)cc1OC` (stereo unspecified), the concentration giving a half-maximal response (EC50) in experiment [6] was 0.452 µM (active).

`C[C@@H]1CN([C@H](C)CO)C(=O)c2cccc(NC(=O)Nc3ccccc3)c2O[C@H]1CN(C)S(=O)(=O)c1ccc(F)cc1`: the AC50 in the experiment with INS1 was 38.3 µM (active).

Usually AC50 stands for the concentration at which the activity in the assay is half-maximal. As a reminder, the IC50 is the concentration at which inhibition is half-maximal. What is called EC50 is the midpoint of the concentration-response curve.

Source of the values: ChEMBL document CHEMBL1201862, “PubChem BioAssay data set” (2004).
